Source: patent US20160002267A1, “BENZYL-SUBSTITUTED PYRAZOLOPYRIDINES AND USE THEREOF” (BAYER PHARMA AKTIENGESELLSCHAFT, priority 2013, published 2016)

Biological target: T1, guanylate cyclase (Rattus norvegicus, UniProt P19686+P20595)
T1 construct: expressed in transfected cells; host or cells: recombinant reporter cell line
T1 sequence (P20595 1-619): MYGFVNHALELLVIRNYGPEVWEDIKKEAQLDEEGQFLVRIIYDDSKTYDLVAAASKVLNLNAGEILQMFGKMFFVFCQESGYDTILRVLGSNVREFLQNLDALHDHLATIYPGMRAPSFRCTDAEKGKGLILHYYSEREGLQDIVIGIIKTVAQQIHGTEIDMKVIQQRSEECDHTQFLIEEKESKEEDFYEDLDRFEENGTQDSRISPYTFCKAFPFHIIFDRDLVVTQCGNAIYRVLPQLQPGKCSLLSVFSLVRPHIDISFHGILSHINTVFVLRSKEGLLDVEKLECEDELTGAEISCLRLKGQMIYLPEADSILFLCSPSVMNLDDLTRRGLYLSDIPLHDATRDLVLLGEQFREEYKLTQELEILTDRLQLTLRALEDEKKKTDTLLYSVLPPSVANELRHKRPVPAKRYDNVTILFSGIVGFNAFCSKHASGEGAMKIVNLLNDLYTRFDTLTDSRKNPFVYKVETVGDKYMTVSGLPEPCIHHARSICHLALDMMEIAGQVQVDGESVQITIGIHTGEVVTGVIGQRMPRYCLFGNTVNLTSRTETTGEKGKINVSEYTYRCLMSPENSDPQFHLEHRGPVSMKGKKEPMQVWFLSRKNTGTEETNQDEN
T1 sequence (P19686 1-690): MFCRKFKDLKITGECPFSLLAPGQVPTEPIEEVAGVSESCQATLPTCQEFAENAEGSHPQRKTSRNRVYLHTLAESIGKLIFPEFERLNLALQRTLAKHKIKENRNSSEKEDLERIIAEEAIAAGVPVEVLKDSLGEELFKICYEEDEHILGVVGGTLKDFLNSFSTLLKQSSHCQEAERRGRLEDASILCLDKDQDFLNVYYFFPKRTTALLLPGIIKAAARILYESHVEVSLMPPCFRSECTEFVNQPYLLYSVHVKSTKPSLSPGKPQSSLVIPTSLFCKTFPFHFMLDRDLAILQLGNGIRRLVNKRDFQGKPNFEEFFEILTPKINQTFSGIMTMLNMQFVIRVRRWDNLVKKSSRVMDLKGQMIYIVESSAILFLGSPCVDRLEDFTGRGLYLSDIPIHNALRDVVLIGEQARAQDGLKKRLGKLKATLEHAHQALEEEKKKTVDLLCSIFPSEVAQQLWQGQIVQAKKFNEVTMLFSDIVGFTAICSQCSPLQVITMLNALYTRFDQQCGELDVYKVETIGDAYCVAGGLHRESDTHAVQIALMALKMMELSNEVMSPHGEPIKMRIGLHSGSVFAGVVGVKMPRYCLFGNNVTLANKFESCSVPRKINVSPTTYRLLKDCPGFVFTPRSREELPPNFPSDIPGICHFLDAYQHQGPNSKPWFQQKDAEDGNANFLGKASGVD
Assay: Effect on a recombinant guanylate cyclase reporter cell line
Format: cell-based
Experimental: The cellular activity of the compounds according to the invention is determined using a recombinant guanylate cyclase reporter cell line, as described in F. Wunder et al., Anal. Biochem. 339, 104-112 (2005).

CC1(C(F)(F)F)C(=O)Nc2nc(-c3nn(Cc4ccccc4F)c4ncc(F)cc34)nc(NCCC(F)(F)F)c21 (single isomer, unassigned) [Example 1-2, 2-[5-Fluoro-1-(2-fluorobenzyl)-1H-pyrazolo[3,4-b]pyridin-3-yl]-5-methyl-5-(trifluoromethyl)-4-[(3,3,3-trifluoropropyl)amino]-5,7-dihydro-6H-pyrrolo[2,3-d]pyrimidin-6-one]
MEC (minimum effective concentration): 0.3 µM
